Tests used:
[1] = antagonism of maximal electroshock seizures (MES test); assay type: in vivo; details: read-out: MES-ED50 (effective dose in 50% of treated animals)
Method: The compounds of the invention are active on the central nervous system (CNS) and can be used in therapy, for example as antiepileptics, in the treatment of Parkinson's disease and as neuroprotective agents, e.g. in degenerative processes associated with normal ageing or pathological situations, such as brain ischemia; they can also be used as antidepressants, hypnotics and antispastic agents. The activity on the CNS of the compounds of the invention was evaluated on the basis of pharmacological methods, such as, for example, the antagonism of convulsions and lethality induced by intravenous injection of bicuculline in mice (Antiepileptic Drugs, D. M. Woodbury et al. eds., 2nd edition, Raven Press, New York, 1982), or the antagonism of maximal electroshock seizures (MES) (Woodbury, L. A. and Davenport V. D., Arch. Int. Pharmacodyn. Ther. 92; 97-104, 1952).
(§1) For instance, the following Table 1 summarizes the activity and neurotoxicity data obtained in the MES test and in the rotorod test, respectively, for a representative group of compounds according to the present invention, in comparison with the prior art compound 2-[4-(3-phenylpropyl)oxybenzyl]aminopropanamide methanesulfonate (internal code FCE 27023) which is known from WO-90/14334
ED50 means effective dose in 50% of treated animals

[2] = in vivo
Method: The neurotoxicity of the compound and of the reference anticonvulsants was assessed with the rotorod test (Dunan and Miye., J. Am. Pharm. Ass. Sci. Ed., 1957, 46, 208; Kinnard et al., J. Pharmacol. Exp. Ther. 1957, 121, 354; Horowitz. Nature, 1963, 200, 369).
as §1
TD50 means toxic dose in 50% of treated animals
TI means therapeutic index (TD50 /ED50)

Row | SMILES | ED50 [1] [mg/kg] | TD50 [2] [mg/kg] | selectivity ratio [2]
1 | CC(NCc1ccc(OCCCc2ccccc2)cc1)C(N)=O (stereo not drawn) [compound 27023] | 8.8 | 584 | 66
2 | NC(=O)C(CO)NCc1ccc(OCCCc2ccccc2)cc1 (stereo not drawn) [compound 28245] | 8.6 | 863 | 100
3 | CC(NCc1ccc(OCCCCCc2ccccc2)cc1)C(N)=O (stereo not drawn) [compound 28244] | 12.5 | 1010 | 81
4 | CC(NCc1ccc(OCCCCc2ccccc2)cc1)C(N)=O (stereo not drawn) [compound 28243] | 12.4 | 1000 | 82
